Structures can show the parent of a compound that is named as a salt. Where two headings read alike, the source gives them in different places.
Assays:
CDK1:Cyclin-B = biological target: T1, CDK1:Cyclin-B (Homo sapiens, UniProt P06493); assay: CDK1 Screening Assay (33P-ATP FlashPlate); type: biochemical; conditions: 10 μM ATP; >10 or >100 = less than 50% inhibition at highest concentration tested
T1 construct: purchased New England Biolabs, Beverly, Mass; 6020; host or cells: insect cells
Method: A kinase reaction mixture was prepared containing 50 mM Tris-HCl pH=8, 10 mM MgCl2, 0.1 mM Na3PO4, 1 mM DTT, 10 μM ATP, 0.025 μM biotinylated histone-H1 peptide substrate and 0.2 μCuries per well ^33P-γ-ATP (2000-3000 Ci/mmol). 70 μL of the kinase reaction mixture was dispensed into each well of a streptavidin coated FlashPlate™ (Cat. # SMP103, NEN, Boston, Mass.). Then 1 μL of test compound stock in 100% DMSO was added to the wells resulting in a final concentration of 1% DMSO in the reaction with a 100 μl final reaction volume.
(§1) Next, CDK1:Cyclin-B protein was diluted in 50 mM Tris-HCl pH=8.0, 0.1% BSA at a concentration of 1 ng per μL and 30 μL (30 ng enzyme per test well) was added to each well to initiate the reaction. The reaction was incubated for one hour at 30° C. At the end of the 1 h incubation, the reaction was terminated by aspirating the mixture from the plate and washing the wells twice with PBS containing 100 mM EDTA. The histone-H1 biotinylated peptide substrate became immobilized on the Flashplate™ and the incorporation of ^33P-γ-ATP was measured by reading the plate on a scintillation counter. Inhibition of the enzymatic activity of CDK1 was measured by observing a reduced amount of ^33P-γ-ATP incorporated into the immobilized peptide.
(§2) VEGF-R (vascular endothelial growth factor receptor-2) is a fusion protein containing a polyhistidine tag at the N-terminus followed by amino acids 786-1343 of the rat VEGF-R2 kinase domain (GenBank Accession #U93306). CDK1 (cyclin dependent kinase 1) was isolated from insect cells expressing both the human CDK1 catalytic subunit and its positive regulatory subunit cyclin B (New England Biolabs, Beverly, Mass., Cat. # 6020). CDK2 in complex with cyclin A is commercially available (Upstate Biotech, Lake Placid, N.Y.). The HER2 (human epidermal growth factor receptor-2) construct contains a polyhistidine tag at the N-terminus followed by 24 additional amino acids and begins at amino acid 676 followed by the remainder of the HER2 cytoplasmic domain.

[1] = Standard Rat Pharmacokinetics (PK); type: in vivo; conditions: for bioavailability: plasma, rat, Dose(IV)*AUC(oral)/Dose(oral)*AUC(IV); for Cmax: rat plasma
Method: The conversion of prodrug to active form was evaluated using a standard rat PK protocol. The following procedure may be followed.
Rats were dosed intravenously (IV) at the level of 1.5-3 mg/kg and by oral gavage (PO) at the level of 10-30 mg/kg with prodrug candidate. For each study, four rats were used for IV dosing and four rats were used for PO dosing. Prodrug was typically formulated for IV dosing as a solution in 10% W/V solutol in 5% dextrose in sterile water vehicle (D5W). Prodrug was typically formulated for oral dosing as a uniform suspension in 0.5% methylcellulose vehicle. Blood samples (0.5 mL) were collected into heparinized tubes post dose via orbital sinus puncture. For IV dosing, blood samples were collected at 5, 15 and 30 mins, 1, 2, 4, 6, 8, and 24 hrs after the dosing. For PO dosing, blood samples were collected at 30 mins, 1, 2, 4, 6, 8 and 24 hrs. Blood samples were centrifuged for cell removal, and precisely 200 μL of plasma supernatant was then transferred to a clean vial, placed on dry ice, and subsequently stored in a −70° C. freezer prior to analysis. Results were calculated by WinNonlin Pro version 3.1. Plasma levels were determined and the oral and intravenous area under the concentration vs. time curve (AUC) were compared to determine the % bioavailability (% F) by the following formula: Dose(IV)*AUC(oral)/Dose (oral)*AUC(IV).

CDK2:Cyclin-E = CDK2:Cyclin-E (Homo sapiens, UniProt P24941); assay: CDK2 Screening Assay (33P-ATP FlashPlate); type: biochemical; conditions: 10 μM ATP; >10 or >100 = less than 50% inhibition at highest concentration tested
Method: as §1, with “A kinase reaction mixture was prepared containing 50 mM Tris-HCl pH=8, 10 mM MgCl2, 0.1 mM Na3PO4, 1 mM DTT, 10 μM ATP, 0.025 μM biotinylated histone-H1 peptide substrate and 0.2 μCuries per well ^33P-γ-ATP (2000-3000 Ci/mmol). 70 μL of the kinase reaction mixture was dispensed into the well of a streptavidin coated FlashPlate™ (Cat. # SMP103, NEN, Boston, Mass.). Then 1 μL of test compound stock in 100% DMSO was added to the wells resulting in a final concentration of 1% DMSO in the reaction with a 100 μl final reaction volume. Next,” for “Next,”, “CDK2:Cyclin-E” for “CDK1:Cyclin-B”, “CDK2” for “CDK1”, “peptide. […]” for “peptide.”

VEGF-R2 kinase = biological target: T2, VEGF-R2 kinase (Rattus norvegicus, UniProt O08775); assay: VEGF-R2 Kinase Screening Assay; type: biochemical; conditions: 10 μM ATP; rat VEGF-R2 kinase domain; read-out: IC50 (μM) VEGFR
T2 construct: 6xHis (polyhistidine) (N)
T2 sequence (O08775 786-1343): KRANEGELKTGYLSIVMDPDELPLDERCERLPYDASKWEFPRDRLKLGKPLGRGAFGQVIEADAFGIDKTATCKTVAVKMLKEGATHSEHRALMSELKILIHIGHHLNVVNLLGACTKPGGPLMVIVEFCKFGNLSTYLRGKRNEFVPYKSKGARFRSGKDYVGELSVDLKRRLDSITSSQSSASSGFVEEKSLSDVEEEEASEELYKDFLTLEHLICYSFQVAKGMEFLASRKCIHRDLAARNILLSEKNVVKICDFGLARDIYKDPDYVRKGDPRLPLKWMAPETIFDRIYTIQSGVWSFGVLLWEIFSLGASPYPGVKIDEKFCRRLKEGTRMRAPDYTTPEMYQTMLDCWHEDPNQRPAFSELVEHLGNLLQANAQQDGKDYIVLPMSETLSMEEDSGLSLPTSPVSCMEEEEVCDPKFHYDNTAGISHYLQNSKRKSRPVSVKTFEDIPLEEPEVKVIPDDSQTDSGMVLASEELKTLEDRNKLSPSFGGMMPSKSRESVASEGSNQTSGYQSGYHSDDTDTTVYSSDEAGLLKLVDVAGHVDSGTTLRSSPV
Method: A kinase reaction mixture was prepared containing 50 mM Tris-HCl pH=8, 10 mM MgCl2, 0.1 mM Na3PO4, 1 mM DTT, 10 μM ATP, 0.025 μM biotinylated peptide substrate and 0.8 μCuries per well ^33P-γ-ATP (2000-3000 Ci/mmol). 70 μL of the kinase reaction mixture was dispensed into each well of a streptavidin coated FlashPlate™ (Cat. # SMP103, NEN, Boston, Mass.). Then 1 μL of test compound stock in 100% DMSO was added to the wells resulting in a final concentration of 1% DMSO in the reaction with a 100 μL final reaction volume. Next, soluble rat tyrosine kinase containing an N-terminal 6×HIS tag was diluted in 50 mM Tris-HCl pH=8.0, 0.1% BSA at a concentration of 5 ng per μL and 30 μL (150 ng enzyme per test well) was added to each well to initiate the reaction. The reaction was incubated for one hour at 30° C. At the end of the 1 h incubation, the reaction was terminated by aspirating the reaction mixture from the plate and washing the wells twice with PBS containing 100 mM EDTA. The PLC1 biotinylated peptide substrate became immobilized on the Flashplate™ and the incorporation of ^33P-γ-ATP was measured by reading the plate on a scintillation counter. Inhibition of the enzymatic activity of the VEGF-R2 kinase was measured by observing a reduced amount of ^33P-γ-ATP incorporated into the immobilized peptide.
as §2

[2] = IV 2 mg/kg of prodrug, read-out: Prodrug Cmax (μM) IV
[3] = PO 10 mg/kg of prodrug, read-out: Prodrug Cmax (μM) PO
[4] = IV 3 mg/kg of prodrug, read-out: Prodrug Cmax (μM) IV
[5] = PO 30 mg/kg of prodrug, read-out: Prodrug Cmax (μM) PO

T1 sequence (P06493 whole entry): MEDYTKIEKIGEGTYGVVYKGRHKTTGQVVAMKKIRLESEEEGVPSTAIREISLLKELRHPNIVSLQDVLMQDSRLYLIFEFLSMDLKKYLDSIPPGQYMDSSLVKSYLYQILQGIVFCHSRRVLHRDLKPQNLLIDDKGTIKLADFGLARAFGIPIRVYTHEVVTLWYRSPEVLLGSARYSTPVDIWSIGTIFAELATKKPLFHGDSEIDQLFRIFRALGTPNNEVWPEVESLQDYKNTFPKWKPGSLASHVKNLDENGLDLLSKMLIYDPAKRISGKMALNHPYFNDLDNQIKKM
T1 sequence (P14635 whole entry partner): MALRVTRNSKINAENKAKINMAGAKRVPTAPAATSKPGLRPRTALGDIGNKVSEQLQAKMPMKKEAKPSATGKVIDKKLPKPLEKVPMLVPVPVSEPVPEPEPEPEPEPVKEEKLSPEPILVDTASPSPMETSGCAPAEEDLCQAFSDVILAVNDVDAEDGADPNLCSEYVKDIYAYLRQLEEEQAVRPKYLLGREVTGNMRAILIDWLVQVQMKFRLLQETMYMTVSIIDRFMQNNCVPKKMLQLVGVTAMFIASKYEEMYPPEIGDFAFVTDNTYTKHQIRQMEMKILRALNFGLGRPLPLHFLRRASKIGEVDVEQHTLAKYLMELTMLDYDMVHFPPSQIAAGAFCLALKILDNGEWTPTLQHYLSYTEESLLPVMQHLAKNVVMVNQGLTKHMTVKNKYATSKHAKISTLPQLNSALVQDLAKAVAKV

Row | IC50 (CDK1:Cyclin-B) | bioavailability ([1]; IV/PO 2/10 mg/kg) | Cmax [1, 2] | Cmax [1, 3] | IC50 (CDK2:Cyclin-E) | IC50 (VEGF-R2 kinase) | bioavailability ([1]; IV/PO 3/30 mg/kg) | Cmax [1, 4] | Cmax [1, 5] | Compound
1 | 12.4 µM | 0% | 81.8 µM | 0.346 µM | 1.53 µM | 2.77 µM |  |  |  | Nc1nc(Nc2ccc(S(=O)(=O)NC(=O)CCCC(=O)O)cc2)nn1C(=O)c1c(F)cccc1F [Compound 11, 5-{4-[5-amino-1-(2,6-difluoro-benzoyl)-1H-[1,2,4]triazol-3-ylamino]-benzenesulfonylamino}-5-oxo-pentanoic acid]
2 | 0.76 µM | 0% |  | 0.04 µM | 0.08 µM | 16.8 µM |  |  |  | Nc1nc(Nc2ccc(S(=O)(=O)NC(=O)COCCOCCOCC(=O)O)cc2)nn1C(=O)c1c(F)cccc1F [Compound 12, {2-[2-(2-{4-[5-amino-1-(2,6-difluoro-benzoyl)-1H-[1,2,4]triazol-3-ylamino]-benzenesulfonylamino}-2-oxo-ethoxy)-ethoxy]-ethoxy}-acetic acid.2TFA salt]
3 | 1.41 µM | 0% | 8.15 µM |  | 0.14 µM | 1.54 µM |  |  |  | Nc1nc(Nc2ccc(S(=O)(=O)NC(=O)[C@@H](N)CO)cc2)nn1C(=O)c1c(F)cccc1F [Compound 13, 4-[5-amino-1-(2,6-difluoro-benzoyl)-1H-[1,2,4]triazol-3-ylamino]-N—((S)-2-amino-3-hydroxy-propionyl)-benzenesulfonamide]
4 | 0.74 µM | 1% | 11 µM | 0.08 µM | 0.06 µM | 0.89 µM |  |  |  | C[C@@H](N)C(=O)NS(=O)(=O)c1ccc(Nc2nc(N)n(C(=O)c3c(F)cccc3F)n2)cc1 [Compound 14, 4-[5-amino-1-(2,6-difluoro-benzoyl)-1H-[1,2,4]triazol-3-ylamino]-N—((R)-2-amino-propionyl)-benzenesulfonamide]
5 | 1.36 µM | 0% | 31.8 µM | 0.167 µM | 0.1 µM | 2.03 µM |  |  |  | C[C@H](N)C(=O)N[C@@H](C)C(=O)NS(=O)(=O)c1ccc(Nc2nc(N)n(C(=O)c3c(F)cccc3F)n2)cc1.O=C(O)C(F)(F)F.O=C(O)C(F)(F)F.O=C(O)C(F)(F)F [Compound 15, (S)-2-amino-N—((S)-2-{4-[5-amino-1-(2,6-difluoro-benzoyl)-1H-[1,2,4]triazol-3-ylamino]-benzenesulfonylamino}-1-methyl-2-oxo-ethyl)-propionamide 3 TFA salt]
6 | 0.23 µM | 0% | 1.8 µM |  | 0.03 µM | 7.31 µM |  |  |  | Nc1nc(Nc2ccc(S(=O)(=O)NC(=O)[C@@H]3CCCN3)cc2)nn1C(=O)c1c(F)cccc1F [Compound 16, 4-[5-amino-1-(2,6-difluoro-benzoyl)-1H-[1,2,4]triazol-3-ylamino]-N—((S)-pyrrolidine-2-carbonyl)-benzenesulfonamide]
7 | 0.98 µM | 0% | 18.3 µM | 0.1 µM | 0.09 µM | 1.56 µM |  |  |  | Nc1nc(Nc2ccc(S(=O)(=O)NC(=O)[C@@H](N)CC(=O)O)cc2)nn1C(=O)c1c(F)cccc1F [Compound 17, (S)-3-amino-4-{4-[5-amino-1-(2,6-difluoro-benzoyl)-1H-[1,2,4]triazol-3-ylamino]-benzenesulfonylamino}-4-oxo-butyric acid]
8 | 1.93 µM |  |  |  | 0.47 µM | 1.54 µM | 0.4% | 134 µM | 0.41 µM | CCCCC(=O)NS(=O)(=O)c1ccc(Nc2nc(N)n(C(=O)c3c(F)cccc3F)n2)cc1 [Compound 18, 4-[5-amino-1-(2,6-difluoro-benzoyl)-1H-[1,2,4]triazol-3-ylamino]-N-pentanoyl-benzenesulfonamide]
9 | 0.28 µM |  |  |  | 0.05 µM | 0.77 µM | 0.41% | 127 µM | 0.27 µM | CCCC(=O)NS(=O)(=O)c1ccc(Nc2nc(N)n(C(=O)c3c(F)cccc3F)n2)cc1 [Compound 19, 4-[5-amino-1-(2,6-difluoro-benzoyl)-1H-[1,2,4]triazol-3-ylamino]-N-butyryl-benzenesulfonamide]
